Data: patent WO2014051359A1, “Pharmaceutical composition comprising neferine as active ingredient for preventing or treating hepatoma” (Pukyong National University, priority 2012, dated 2014)

What was measured:
Hep3B [1] = experiment: Cell cycle analysis by flow cytometer (propidium iodide); format: cell-based; details: for sub-G1 cell population: 24 h (untreated 1.35%)
Hep3B [2] = experiment: Cell viability assay (WST-1), Hep3B; format: cell-based; details: 24 h
THLE-3 = experiment: Cell viability assay (WST-1), THLE-3; format: cell-based; details: THLE-3, 5-30 μM, 24 h
[3] = Cell viability assay (WST-1), THLE-3; format: cell-based; details: human, thle-3 cells, THLE-3, 30 μM, read-out: survival rate of the cells
Hep3B [4] = experiment: Western blot of Bcl-2 family and apoptotic proteins; format: cell-based; details: 15, 20, 25 μM, 24 h
Hep3B [5] = experiment: Immunofluorescence, cleaved caspase-8 and -3; format: cell-based; details: 15 μM, 12 h; vs untreated
Hep3B [6] = experiment: Wound-healing assay (cell migration); format: cell-based
Hep3B [7] = experiment: Western blot of LC3B; format: cell-based; details: 15, 20, 25 μM, 12 h; vs untreated
Hep3B [8] = experiment: DAPI assay, nuclear condensation / apoptosis induction; format: cell-based; details: 20, 25 μM
[9] = test system: Hep3B cells transformed with GFP-LC3B plasmid; experiment: Autophagosome formation in GFP-LC3B transformed cells, fluorescence microscopy; format: cell-based; details: 20 μM, over time (6, 12, 18, 24)
Hep3B [10] = experiment: Western blot of endoplasmic reticulum chaperone proteins; format: cell-based; details: 20 μM, depending on time
Hep3B [11] = experiment: Western blot of cell cycle-related proteins; format: cell-based; details: 15, 20, 25 μM, 24 h
Sk-Hep1 = experiment: Cell viability assay (WST-1), Sk-Hep1; format: cell-based
Hep3B [12] = experiment: Immunofluorescence, caspase-12 (endoplasmic reticulum stress); format: cell-based; details: 15 μM, 12 h
HUVECs = experiment: Tube formation assay (angiogenesis, in vitro); format: cell-based, human; details: for degree of tube formation (total tube length, converted to percent): 18 h (untreated 222)
Hep3B [13] = experiment: Immunofluorescence, p21Waf1/Cip1; format: cell-based; details: 15 μM, 12 h; vs untreated

With COc1ccc(C[C@@H]2c3cc(Oc4cc(C[C@@H]5c6cc(OC)c(OC)cc6CCN5C)ccc4O)c(OC)cc3CCN2C)cc1 [neferine, 4-[[(1R)-6,7-Dimethoxy-2-methyl-3,4-dihydro-1H-isoquinolin-1-yl]methyl]-2-[[(1R)-6-methoxy-1-[(4-methoxyphenyl)methyl]-2-methyl-3,4-dihydro-1H-isoquinolin-7-yl]oxy]phenol] the sub-G1 cell population (Hep3B [1]; 15 μM) was 4.78%, the “increase of G1/S phase compared to untreated group” value (Hep3B [1]; 20 μM, 24 h) was “approximately 9%” and the sub-G1 cell population (Hep3B [1]; 20 μM) was 16.01%. For the same molecule, the “sub-G1 cell population (concentration dependence)” value (Hep3B [1]; 15, 20, 25 μM, 24 h) was “sub-G1 cell population increases in proportion to the neferrin treatment concentration”, the cell suppression (Hep3B [2]; 10 μM or more) was “marked cell suppression” and the “cell viability (concentration dependence)” value (Hep3B [2]; 5-30 μM) was “significant decrease in cell viability depending on the neferrin treatment concentration”. For the same molecule, the viability at 30 µM (Hep3B [2]; Homo sapiens, read-out: cell viability) was < 10%, the cytotoxicity (THLE-3) was “did not show cytotoxicity” and the viability at 24 h, 30 µM [3] was ~90%. For the same molecule, the Bak protein expression (Hep3B [4]) was “significantly increased”, the Bax protein expression (Hep3B [4]) was “slightly increased” and the Bid protein expression (Hep3B [4]) was “slightly increased”. The Bim protein expression (Hep3B [4]) was “slightly increased”, the Puma protein expression (Hep3B [4]) was “significantly increased” and the caspase-3 protein expression (Hep3B [4]) was “decrease depending on the treatment concentration”. For the same molecule, the “cleaved PARP protein expression” value (Hep3B [4]) was “markedly increased”, the “cleaved caspase-6 protein expression” value (Hep3B [4]) was “markedly increased” and the “cleaved caspase-3 expression” value (Hep3B [5]) was “markedly expressed”. For the same molecule, the “cleaved caspase-8 expression” value (Hep3B [5]) was “markedly expressed”, the inhibition at 15 µM (Hep3B [6]; Homo sapiens, Hep3B, 15 μM, 72 h, vs increased migration in untreated group, read-out: reduction of cell coverage area) was ~20% and the cell migration (Hep3B [6]; images at 12 h intervals) was “cell migration was suppressed depending on the neferrin treatment concentration”. For the same molecule, the “expression of LC3B around the membrane” value (Hep3B [7]) was “농도 의존적으로 증가”, the “nuclear membrane changes (shrinkage, blebbing)” value (Hep3B [8]; 6 h after treatment, vs untreated) was “세포들의 응축(shrinkage) 및 파열(blebbing)과 같은 핵 막 변화가 나타나는” and the “nuclear condensation (apoptosome formation)” value (Hep3B [8]; 24 h after treatment) was “핵 응축(apoptosome formation)이 관찰되었다”. For the same molecule, the “number of autophagosomes in the cytoplasm (GFP-LC3B dots)” value [9] was “자가포식소체 수가 세포질 내에서 증가”, the “size and number of vacuoles” value [9] was “시간 의존적으로 더 크고 많이 증가” and the “vacuole formation in the cytoplasm” value [9] was “소체(vacuole) 형성이 발생”. For the same molecule, the “Bip protein expression level” value (Hep3B [10]) was “significantly up-regulate”, the “PDI protein expression level” value (Hep3B [10]) was “significantly up-regulate” and the “calnexin protein expression level” value (Hep3B [10]) was “significantly up-regulate”. For the same molecule, the “calpain2 protein expression level” value (Hep3B [10]) was “significantly up-regulate”, the “caspase-12 protein expression level” value (Hep3B [10]) was “significantly up-regulate” and the CDK4 protein expression (Hep3B [11]) was “down regulation”. For the same molecule, the E2F-1 protein expression (Hep3B [11]) was “down regulation”, the c-Myc protein expression (Hep3B [11]) was “down regulation” and the “cyclin D1 protein expression” value (Hep3B [11]) was “down regulation”. For the same molecule, the “cyclin D3 protein expression” value (Hep3B [11]) was “down regulation”, the “p21 Waf1/Cip1 protein expression” value (Hep3B [11]) was “expression was increased” and the “phosphorylation of cdc2” value (Hep3B [11]) was “dephosphorylation of cdc2”. For the same molecule, the viability at 30 µM (Sk-Hep1; Homo sapiens, SK-HEP1, 24 h, read-out: survival rate of the cells) was ~90%, the cytotoxicity (Sk-Hep1; Sk-Hep1, 5-30 μM, 24 h) was “did not show cytotoxicity” and the “expansion of the endoplasmic reticulum (caspase-12 staining)” value (Hep3B [12]) was “소포체의 확장을 관찰”. For the same molecule, the “degree of tube formation (total tube length, converted to percent)” value (HUVECs; 10 μM) was 216%, the “degree of tube formation (total tube length, converted to percent)” value (HUVECs; 20 μM) was 202% and the “degree of tube formation (total tube length, converted to percent)” value (HUVECs; 30 μM) was 146%. The “formation of cellular vascular structures” value (HUVECs; 10, 20, 30 μM, 18 h) was “suppression of the formation of cellular vascular structures”, the “tube length (px), concentration dependence” value (HUVECs; 10, 20, 30 μM, 18 h) was “tube length (px) is reduced depending on the neferrin concentration” and the “expression level of p21 Waf1/Cip1 protein around the nucleus in the cytoplasm” value (Hep3B [13]) was “두드러지게 증대”.
